Legend:
[1] = target: T1, Histone deacetylase 8 (Homo sapiens, UniProt Q9BY41); assay: Inhibition of HDAC8 (unknown origin) using (FAM)-labeled acetylated peptide as substrate measured after 17 hrs by fluorescence assay
T1 sequence (Q9BY41 whole entry): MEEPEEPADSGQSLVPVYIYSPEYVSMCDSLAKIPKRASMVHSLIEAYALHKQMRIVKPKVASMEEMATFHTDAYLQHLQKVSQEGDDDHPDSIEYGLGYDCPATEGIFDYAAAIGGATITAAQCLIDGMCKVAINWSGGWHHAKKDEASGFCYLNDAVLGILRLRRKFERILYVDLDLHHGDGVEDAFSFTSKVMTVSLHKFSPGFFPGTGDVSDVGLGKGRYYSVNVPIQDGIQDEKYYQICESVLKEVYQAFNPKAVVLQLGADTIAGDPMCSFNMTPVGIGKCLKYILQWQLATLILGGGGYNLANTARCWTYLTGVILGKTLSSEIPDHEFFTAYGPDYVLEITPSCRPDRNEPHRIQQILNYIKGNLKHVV

[2] = target: T2, Histone deacetylase 1 (Homo sapiens, UniProt Q13547); assay: Inhibition of HDAC1 (unknown origin) using (FAM)-labeled acetylated peptide as substrate measured after 17 hrs by fluorescence assay
T2 sequence (Q13547 whole entry): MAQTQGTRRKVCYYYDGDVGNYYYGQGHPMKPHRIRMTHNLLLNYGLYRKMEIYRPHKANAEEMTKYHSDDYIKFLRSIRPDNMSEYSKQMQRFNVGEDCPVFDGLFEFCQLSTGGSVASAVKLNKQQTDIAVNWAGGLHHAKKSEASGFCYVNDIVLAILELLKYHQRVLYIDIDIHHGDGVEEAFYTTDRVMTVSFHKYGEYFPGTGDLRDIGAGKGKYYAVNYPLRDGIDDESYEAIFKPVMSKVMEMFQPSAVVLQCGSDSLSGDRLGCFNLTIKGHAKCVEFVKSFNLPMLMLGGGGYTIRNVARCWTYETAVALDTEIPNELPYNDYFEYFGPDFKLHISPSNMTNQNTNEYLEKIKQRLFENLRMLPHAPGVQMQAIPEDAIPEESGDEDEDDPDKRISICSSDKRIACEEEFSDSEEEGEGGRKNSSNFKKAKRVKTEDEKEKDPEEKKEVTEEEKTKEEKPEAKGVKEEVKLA

[3] = target: Histone deacetylase 3 (Homo sapiens, UniProt O15379); assay: Inhibition of HDAC3 (unknown origin) using (FAM)-labeled acetylated peptide as substrate measured after 17 hrs by fluorescence assay
Histone deacetylase 3, sequence (O15379 whole entry): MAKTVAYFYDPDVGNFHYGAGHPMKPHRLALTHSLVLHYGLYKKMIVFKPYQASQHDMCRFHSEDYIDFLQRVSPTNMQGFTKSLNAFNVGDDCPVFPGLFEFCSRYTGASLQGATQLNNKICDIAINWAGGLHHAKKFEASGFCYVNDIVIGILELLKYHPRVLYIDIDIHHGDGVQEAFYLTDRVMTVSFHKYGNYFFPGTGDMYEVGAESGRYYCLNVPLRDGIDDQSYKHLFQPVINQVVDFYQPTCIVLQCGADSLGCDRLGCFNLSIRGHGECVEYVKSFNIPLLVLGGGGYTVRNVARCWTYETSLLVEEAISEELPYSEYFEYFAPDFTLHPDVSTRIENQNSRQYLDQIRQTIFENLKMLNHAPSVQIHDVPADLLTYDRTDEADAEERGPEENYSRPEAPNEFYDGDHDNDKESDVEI

[4] = target: T3, Histone deacetylase 2 (Homo sapiens, UniProt Q92769); assay: Inhibition of HDAC2 (unknown origin) using (FAM)-labeled acetylated peptide as substrate measured after 17 hrs by fluorescence assay
T3 sequence (Q92769 whole entry): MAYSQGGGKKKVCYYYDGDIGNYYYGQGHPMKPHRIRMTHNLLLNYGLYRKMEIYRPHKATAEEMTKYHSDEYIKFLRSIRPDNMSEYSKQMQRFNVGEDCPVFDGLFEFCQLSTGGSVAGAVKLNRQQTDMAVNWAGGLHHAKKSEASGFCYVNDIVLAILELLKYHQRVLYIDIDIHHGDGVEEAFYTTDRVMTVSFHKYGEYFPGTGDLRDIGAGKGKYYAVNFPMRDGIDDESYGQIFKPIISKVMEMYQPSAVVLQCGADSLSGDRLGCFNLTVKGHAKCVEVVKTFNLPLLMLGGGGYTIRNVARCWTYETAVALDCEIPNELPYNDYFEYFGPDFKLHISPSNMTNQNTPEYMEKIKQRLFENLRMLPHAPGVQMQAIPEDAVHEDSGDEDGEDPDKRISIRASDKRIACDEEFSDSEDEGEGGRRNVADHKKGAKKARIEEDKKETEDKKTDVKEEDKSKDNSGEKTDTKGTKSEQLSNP

[5] = target: T4, Protein deacetylase HDAC6 (Homo sapiens, UniProt Q9UBN7); assay: Inhibition of HDAC6 (unknown origin) using (FAM)-labeled acetylated peptide as substrate measured after 17 hrs by fluorescence assay
T4 sequence (Q9UBN7 whole entry): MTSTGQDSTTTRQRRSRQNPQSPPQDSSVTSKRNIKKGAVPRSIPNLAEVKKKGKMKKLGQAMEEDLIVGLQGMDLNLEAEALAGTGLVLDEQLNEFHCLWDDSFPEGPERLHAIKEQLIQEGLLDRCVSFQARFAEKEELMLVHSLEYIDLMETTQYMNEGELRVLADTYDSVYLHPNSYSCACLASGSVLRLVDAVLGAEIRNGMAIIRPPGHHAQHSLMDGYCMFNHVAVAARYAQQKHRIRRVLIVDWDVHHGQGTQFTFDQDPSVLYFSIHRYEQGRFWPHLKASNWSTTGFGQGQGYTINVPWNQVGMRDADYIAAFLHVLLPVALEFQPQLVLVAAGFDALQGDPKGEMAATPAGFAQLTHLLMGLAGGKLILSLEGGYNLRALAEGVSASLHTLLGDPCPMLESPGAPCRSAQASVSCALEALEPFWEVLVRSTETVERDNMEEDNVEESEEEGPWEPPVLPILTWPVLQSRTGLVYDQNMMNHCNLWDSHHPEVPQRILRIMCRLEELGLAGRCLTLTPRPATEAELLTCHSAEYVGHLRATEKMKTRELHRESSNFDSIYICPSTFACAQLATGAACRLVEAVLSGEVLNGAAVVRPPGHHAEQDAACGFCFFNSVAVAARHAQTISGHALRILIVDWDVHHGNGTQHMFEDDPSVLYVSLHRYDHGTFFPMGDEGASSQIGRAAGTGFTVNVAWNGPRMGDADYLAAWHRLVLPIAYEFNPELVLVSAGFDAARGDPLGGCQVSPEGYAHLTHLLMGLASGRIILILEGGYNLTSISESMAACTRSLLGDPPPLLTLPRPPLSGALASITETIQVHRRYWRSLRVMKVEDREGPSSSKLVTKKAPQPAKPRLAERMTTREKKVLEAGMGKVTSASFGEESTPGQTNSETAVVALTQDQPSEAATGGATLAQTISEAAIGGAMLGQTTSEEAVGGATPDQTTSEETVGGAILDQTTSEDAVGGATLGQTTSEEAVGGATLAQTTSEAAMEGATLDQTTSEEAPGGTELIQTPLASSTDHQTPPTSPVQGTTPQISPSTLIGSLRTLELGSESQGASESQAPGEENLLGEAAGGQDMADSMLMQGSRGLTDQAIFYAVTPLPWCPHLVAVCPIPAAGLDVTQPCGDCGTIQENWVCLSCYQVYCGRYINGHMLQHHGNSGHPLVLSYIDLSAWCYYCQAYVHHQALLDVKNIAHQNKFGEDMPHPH

[6] = target: T5, Polyamine deacetylase HDAC10 (Homo sapiens, UniProt Q969S8); assay: Inhibition of HDAC10 (unknown origin) using (FAM)-labeled acetylated peptide as substrate measured after 17 hrs by fluorescence assay
T5 sequence (Q969S8 whole entry): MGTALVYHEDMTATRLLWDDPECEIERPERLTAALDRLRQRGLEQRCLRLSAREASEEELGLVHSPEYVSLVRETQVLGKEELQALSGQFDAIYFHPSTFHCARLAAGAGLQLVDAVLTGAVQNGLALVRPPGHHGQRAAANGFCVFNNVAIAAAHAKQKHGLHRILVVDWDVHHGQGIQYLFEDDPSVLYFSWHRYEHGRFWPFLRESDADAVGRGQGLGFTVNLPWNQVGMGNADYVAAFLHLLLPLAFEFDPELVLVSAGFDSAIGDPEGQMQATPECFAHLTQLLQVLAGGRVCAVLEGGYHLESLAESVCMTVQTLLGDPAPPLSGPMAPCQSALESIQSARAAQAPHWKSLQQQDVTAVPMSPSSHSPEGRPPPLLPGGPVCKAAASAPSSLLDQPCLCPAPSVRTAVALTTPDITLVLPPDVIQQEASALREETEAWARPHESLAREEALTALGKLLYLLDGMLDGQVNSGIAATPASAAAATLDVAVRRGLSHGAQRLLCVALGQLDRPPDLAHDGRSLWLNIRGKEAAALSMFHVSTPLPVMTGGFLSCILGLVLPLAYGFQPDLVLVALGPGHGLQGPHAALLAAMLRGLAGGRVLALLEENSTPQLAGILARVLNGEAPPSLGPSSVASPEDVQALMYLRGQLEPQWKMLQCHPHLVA

[7] = target: T6, Histone deacetylase 7 (Homo sapiens, UniProt Q8WUI4); assay: Inhibition of HDAC7 (unknown origin)
T6 sequence (Q8WUI4 whole entry): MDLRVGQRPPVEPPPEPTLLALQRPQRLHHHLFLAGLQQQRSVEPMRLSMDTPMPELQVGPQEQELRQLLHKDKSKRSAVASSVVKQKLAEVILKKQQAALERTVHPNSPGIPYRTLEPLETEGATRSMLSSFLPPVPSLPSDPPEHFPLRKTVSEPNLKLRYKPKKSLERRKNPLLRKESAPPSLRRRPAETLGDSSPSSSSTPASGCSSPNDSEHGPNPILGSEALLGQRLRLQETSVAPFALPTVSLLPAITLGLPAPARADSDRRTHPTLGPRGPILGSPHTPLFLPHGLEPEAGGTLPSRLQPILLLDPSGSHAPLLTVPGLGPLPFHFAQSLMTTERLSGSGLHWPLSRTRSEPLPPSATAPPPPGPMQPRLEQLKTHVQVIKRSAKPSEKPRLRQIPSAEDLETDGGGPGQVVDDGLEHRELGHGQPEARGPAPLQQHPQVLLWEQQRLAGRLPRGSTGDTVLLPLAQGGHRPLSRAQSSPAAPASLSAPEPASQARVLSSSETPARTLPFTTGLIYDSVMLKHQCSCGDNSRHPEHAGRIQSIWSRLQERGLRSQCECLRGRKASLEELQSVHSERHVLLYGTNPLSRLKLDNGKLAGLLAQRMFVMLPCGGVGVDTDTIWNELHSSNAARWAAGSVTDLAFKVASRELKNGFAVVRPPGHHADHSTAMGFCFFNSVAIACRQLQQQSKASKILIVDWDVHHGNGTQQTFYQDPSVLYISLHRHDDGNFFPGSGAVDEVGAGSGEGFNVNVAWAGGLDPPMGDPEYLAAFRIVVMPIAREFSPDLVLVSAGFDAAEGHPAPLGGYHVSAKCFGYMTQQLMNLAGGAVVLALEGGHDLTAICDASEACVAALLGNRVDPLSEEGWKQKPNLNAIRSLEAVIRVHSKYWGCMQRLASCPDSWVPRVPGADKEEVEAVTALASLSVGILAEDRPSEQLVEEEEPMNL

[8] = target: Histone deacetylase 5 (Homo sapiens, UniProt Q9UQL6); assay: Inhibition of HDAC5 (unknown origin)
[9] = target: T7, Histone deacetylase 4 (Homo sapiens, UniProt P56524); assay: Inhibition of HDAC4 (unknown origin)
T7 sequence (P56524 whole entry, the tested form may be a part): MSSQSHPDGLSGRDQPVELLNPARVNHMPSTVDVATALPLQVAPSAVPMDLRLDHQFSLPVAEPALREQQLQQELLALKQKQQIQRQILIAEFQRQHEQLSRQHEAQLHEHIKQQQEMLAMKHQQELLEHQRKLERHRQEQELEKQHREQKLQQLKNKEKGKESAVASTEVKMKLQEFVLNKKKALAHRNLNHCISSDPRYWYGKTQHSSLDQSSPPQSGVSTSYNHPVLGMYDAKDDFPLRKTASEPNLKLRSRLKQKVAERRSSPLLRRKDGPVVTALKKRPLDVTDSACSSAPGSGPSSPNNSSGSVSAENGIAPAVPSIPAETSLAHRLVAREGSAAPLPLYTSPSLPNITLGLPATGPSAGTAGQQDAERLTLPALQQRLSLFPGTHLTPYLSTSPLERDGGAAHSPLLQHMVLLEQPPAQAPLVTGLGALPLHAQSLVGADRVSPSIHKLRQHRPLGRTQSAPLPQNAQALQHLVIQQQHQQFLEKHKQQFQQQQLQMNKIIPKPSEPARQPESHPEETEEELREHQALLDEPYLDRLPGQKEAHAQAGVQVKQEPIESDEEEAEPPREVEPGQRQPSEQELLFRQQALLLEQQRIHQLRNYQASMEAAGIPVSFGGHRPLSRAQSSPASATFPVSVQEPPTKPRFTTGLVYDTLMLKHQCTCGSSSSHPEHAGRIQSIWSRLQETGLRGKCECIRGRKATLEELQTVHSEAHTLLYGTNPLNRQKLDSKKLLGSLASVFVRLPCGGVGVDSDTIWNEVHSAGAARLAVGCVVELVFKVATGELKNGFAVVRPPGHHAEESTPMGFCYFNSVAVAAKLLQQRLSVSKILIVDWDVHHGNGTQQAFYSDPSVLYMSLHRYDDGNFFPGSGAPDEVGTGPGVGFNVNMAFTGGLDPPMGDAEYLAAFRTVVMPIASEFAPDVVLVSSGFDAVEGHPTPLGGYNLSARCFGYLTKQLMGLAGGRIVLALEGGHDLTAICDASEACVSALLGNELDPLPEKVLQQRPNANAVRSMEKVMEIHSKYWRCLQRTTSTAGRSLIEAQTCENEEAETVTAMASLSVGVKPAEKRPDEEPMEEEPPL

[10] = target: Histone deacetylase 3/NCoR1 (Homo sapiens, UniProt O15379); assay: Inhibition of human recombinant HDAC3/GST-tagged NCOR1 DAD (397 to 503 residues) expressed in baculovirus expression system by fluorescence assay
Histone deacetylase 3/NCoR1, sequence (O15379 whole entry, the tested form may be a part): as the sequence (O15379 whole entry) above
Histone deacetylase 3/NCoR1, sequence (O75376 whole entry, further chain, the tested form may be a part): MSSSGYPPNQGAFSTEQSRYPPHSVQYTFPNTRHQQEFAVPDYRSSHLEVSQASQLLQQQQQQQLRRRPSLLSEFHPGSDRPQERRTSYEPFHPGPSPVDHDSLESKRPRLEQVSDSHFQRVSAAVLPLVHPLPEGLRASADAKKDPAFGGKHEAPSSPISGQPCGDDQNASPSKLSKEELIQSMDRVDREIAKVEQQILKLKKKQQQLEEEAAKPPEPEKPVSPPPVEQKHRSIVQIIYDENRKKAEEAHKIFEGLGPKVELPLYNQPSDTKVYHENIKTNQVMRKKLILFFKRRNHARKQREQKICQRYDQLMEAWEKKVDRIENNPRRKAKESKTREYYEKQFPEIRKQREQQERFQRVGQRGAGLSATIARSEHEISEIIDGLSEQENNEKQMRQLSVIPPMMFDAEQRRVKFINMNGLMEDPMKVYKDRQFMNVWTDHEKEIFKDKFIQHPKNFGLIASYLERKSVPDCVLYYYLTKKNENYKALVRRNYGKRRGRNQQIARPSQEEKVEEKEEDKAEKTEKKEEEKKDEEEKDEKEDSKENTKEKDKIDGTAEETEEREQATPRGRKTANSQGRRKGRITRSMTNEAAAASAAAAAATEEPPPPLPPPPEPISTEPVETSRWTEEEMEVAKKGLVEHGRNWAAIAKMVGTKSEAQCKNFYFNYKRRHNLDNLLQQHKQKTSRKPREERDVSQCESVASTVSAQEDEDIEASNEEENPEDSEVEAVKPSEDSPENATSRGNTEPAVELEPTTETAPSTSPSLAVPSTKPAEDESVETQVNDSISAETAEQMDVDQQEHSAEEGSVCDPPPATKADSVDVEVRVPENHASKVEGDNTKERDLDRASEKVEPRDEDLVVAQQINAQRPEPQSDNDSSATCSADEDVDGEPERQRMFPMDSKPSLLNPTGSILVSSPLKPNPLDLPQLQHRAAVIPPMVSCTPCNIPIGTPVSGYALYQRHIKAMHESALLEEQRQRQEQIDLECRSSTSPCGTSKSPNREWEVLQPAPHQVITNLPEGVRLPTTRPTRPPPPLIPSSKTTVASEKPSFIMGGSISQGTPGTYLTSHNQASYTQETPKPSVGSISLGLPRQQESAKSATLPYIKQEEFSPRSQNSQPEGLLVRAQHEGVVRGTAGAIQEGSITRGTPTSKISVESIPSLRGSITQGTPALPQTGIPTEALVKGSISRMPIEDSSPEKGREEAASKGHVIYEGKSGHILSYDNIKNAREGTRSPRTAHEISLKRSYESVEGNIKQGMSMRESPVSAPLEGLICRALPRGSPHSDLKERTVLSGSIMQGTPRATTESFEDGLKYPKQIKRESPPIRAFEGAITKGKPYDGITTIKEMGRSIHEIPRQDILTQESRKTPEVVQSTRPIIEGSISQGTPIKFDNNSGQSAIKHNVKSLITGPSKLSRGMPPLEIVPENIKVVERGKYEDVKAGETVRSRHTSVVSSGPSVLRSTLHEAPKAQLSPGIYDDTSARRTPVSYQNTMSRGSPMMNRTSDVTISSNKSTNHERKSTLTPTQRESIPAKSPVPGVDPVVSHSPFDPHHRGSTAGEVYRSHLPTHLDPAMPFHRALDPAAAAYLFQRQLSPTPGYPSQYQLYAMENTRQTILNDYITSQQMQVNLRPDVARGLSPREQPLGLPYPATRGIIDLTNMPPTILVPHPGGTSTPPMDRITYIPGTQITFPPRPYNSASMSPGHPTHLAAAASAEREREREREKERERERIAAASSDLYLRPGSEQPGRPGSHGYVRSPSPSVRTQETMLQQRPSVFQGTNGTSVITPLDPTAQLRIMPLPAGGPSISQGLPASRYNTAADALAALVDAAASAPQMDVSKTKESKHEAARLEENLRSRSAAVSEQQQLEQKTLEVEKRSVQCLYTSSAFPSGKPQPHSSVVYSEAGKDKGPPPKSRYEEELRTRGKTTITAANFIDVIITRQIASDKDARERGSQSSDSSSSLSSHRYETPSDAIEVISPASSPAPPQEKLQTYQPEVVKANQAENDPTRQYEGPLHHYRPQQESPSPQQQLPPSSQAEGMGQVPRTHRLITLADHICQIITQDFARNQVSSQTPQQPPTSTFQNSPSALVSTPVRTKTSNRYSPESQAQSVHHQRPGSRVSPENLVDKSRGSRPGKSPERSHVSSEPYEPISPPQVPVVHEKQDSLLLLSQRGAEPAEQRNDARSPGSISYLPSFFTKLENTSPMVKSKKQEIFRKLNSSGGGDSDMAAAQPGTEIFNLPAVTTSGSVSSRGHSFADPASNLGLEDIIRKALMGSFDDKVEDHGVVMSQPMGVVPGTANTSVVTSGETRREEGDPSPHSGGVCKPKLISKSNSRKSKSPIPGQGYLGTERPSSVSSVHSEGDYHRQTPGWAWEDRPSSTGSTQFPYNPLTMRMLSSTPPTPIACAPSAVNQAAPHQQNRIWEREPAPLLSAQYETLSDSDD

[11] = target: T4, Protein deacetylase HDAC6; assay: Inhibition of recombinant human full length N-terminal GST-tagged HDAC6 expressed in Sf9 insect cells using (S)-6-acetamido-2-(2-((S)-2-acetamido-4-methylpentanamido)acetamido)-N-(4-methyl-2-oxo-2H-chromen-7-yl)hexanamide as substrate by fluorescence assay
[12] = Dissociation constant, pKa of the compound; type: physicochemical
[13] = target: T1, Histone deacetylase 8; assay: Inhibition of recombinant human HDAC8 using fluorescently-labeled acetylated histone peptide as substrate by microfluidic mobility shift assay
[14] = target: T2, Histone deacetylase 1; assay: Inhibition of recombinant human HDAC1 using fluorescently-labeled acetylated histone peptide as substrate by microfluidic mobility shift assay
[15] = target: T4, Protein deacetylase HDAC6; assay: Inhibition of recombinant human HDAC6 using fluorescently-labeled acetylated histone peptide as substrate by microfluidic mobility shift assay
[16] = target: T7, Histone deacetylase 4; assay: Inhibition of recombinant human HDAC4 using fluorescently-labeled acetylated histone peptide as substrate by microfluidic mobility shift assay
[17] = target: T6, Histone deacetylase 7; assay: Inhibition of recombinant human HDAC7 using fluorescently-labeled acetylated histone peptide as substrate by microfluidic mobility shift assay
[18] = target: T3, Histone deacetylase 2; assay: Inhibition of recombinant human HDAC2 using fluorescently-labeled acetylated histone peptide as substrate by microfluidic mobility shift assay

`Nc1cccc(-c2csc(NC(=O)CCCCCC(=O)NO)n2)c1` showed an IC50 [1] of 1950 nM, an IC50 [2] of 3.8 nM and an IC50 [3] of 2.1 nM. The IC50 [4] was 26.5 nM, the IC50 [5] was 3.3 nM and the IC50 [6] was 3.7 nM.
In the case of `Nc1ccccc1NC(=O)CCCCCC(=O)Nc1ccccc1`, the IC50 [7] is reported as “Not Active”, the IC50 [8] is reported as “Not Active” and the IC50 [9] is reported as “Not Active”.
Work on `Nc1ccccc1NC(=O)c1ccc(-c2cn(CCc3ccsc3)nn2)cc1` yielded an IC50 [10] of 240 nM.
For `Nc1ccccc1NC(=O)c1cnccn1`, the IC50 [11] was greater than 20000 nM.
Compound `CC(=O)Nc1ccc(C(=O)Nc2ccc(F)cc2N)cc1` has a pKa [12] of 2.33.
For `C=C1CN(Cc2ccc(C(=O)Nc3ccccc3N)cc2)C(=O)c2ccccc21`, the IC50 [13] was greater than 10000 nM, the IC50 [14] was 4800 nM and the IC50 [15] was greater than 10000 nM. It also gave an IC50 [16] of 5000 nM, an IC50 [17] of 4100 nM and an IC50 [18] of 30 nM.
In the case of `CCOC(=O)Nc1cccc(-c2csc(NC(=O)CCCCCC(=O)NO)n2)c1`, the IC50 [1] is reported as 787 nM, the IC50 [2] is reported as 2.5 nM and the IC50 [3] is reported as 1.3 nM. The IC50 [4] was 24.5 nM, the IC50 [5] was 0.79 nM and the IC50 [6] was 2.1 nM.
Compound `CC(C)(C)OC(=O)Nc1cccc(-c2csc(NC(=O)CCCCCC(=O)Nc3ccccc3N)n2)c1` has an IC50 [1] greater than 30000 nM, an IC50 [2] of 4200 nM and an IC50 [3] of 160 nM. For the same compound, the IC50 [4] was 1100 nM, the IC50 [5] was 1500 nM and the IC50 [6] was 5300 nM.
`CC(=O)Nc1cccc(-c2csc(NC(=O)CCCCCC(=O)Nc3ccccc3N)n2)c1` showed an IC50 [1] greater than 30000 nM, an IC50 [2] of 3200 nM and an IC50 [3] of 30 nM. For the same compound, the IC50 [4] was 200 nM, the IC50 [5] was 11200 nM and the IC50 [6] was 3000 nM.
`CC(C)(C)OC(=O)Nc1cccc(-c2csc(NC(=O)CCCCCC(=O)NO)n2)c1` showed an IC50 [1] of 2580 nM, an IC50 [2] of 4.2 nM and an IC50 [3] of 1.7 nM. The IC50 [4] was 21 nM, the IC50 [5] was less than 0.17 nM and the IC50 [6] was 5.7 nM.
Work on `CCOC(=O)Nc1cccc(-c2csc(NC(=O)CCCCCC(=O)Nc3ccccc3N)n2)c1` yielded an IC50 [1] greater than 30000 nM, an IC50 [2] of 24800 nM and an IC50 [3] of 60 nM. For the same compound, the IC50 [4] was 880 nM, the IC50 [5] was greater than 30000 nM and the IC50 [6] was greater than 30000 nM.
Compound `Nc1cccc(-c2csc(NC(=O)CCCCCC(=O)Nc3ccccc3N)n2)c1` has an IC50 [1] greater than 30000 nM, an IC50 [2] of 2490 nM and an IC50 [3] of 60.3 nM. It also gave an IC50 [4] of 147 nM, an IC50 [5] greater than 30000 nM and an IC50 [6] of 2910 nM.
For `CC(=O)Nc1ccc(C(=O)Nc2ccccc2N)cc1` [TACEDINALINE], the pKa [12] was 3.33.

From ChEMBL document CHEMBL4400533, “Histone deacetylase 3 inhibitors in learning and memory processes with special emphasis on benzamides” (Eur J Med Chem, 2019)
